Measured values published in patent US10258664B2, “Methods and compositions for treating pain” (MannKind Corporation, priority 2011, dated 2019).
Residues, ends and D or L forms follow the SMILES beside them.

Key:
[1] = tested on: mice; assay: Spontaneous locomotion and respiration in the comprehensive laboratory animal monitoring system (CLAMS); details: 0.125 mg by insufflation; for ambulation (spontaneous locomotion): FIG. 4A; for respiration rate: FIG. 4B
[2] = tested on: mice; assay: Conditioned place preference (CPP) study; details: 0.125 mg insufflated; FIG. 5
Experimental: In a conditioned place preference (CPP) study to evaluate the “reward” or “aversive” value of the drug, mice are conditioned to associate one compartment of the apparatus with treatment. […] The experiments were conducted similarly as described in the previous examples. […] To test placebo effect, additional mice were insufflated with FDKP (TECHNOSPHERE®) powder (0.5 mg) without any peptide.

[3] = tested on: patient; assay: Patient examples: inhaled analgesic composition, patient-reported pain; format: in vivo, human
Experimental: patient one reports headache pain to their doctor. […] The analgesic composition is 15% peptide. The analgesic composition is administered with a reusable inhaler calibrated to provide a dose of 5 mg/kg of body weight.
A patient undergoing chemotherapy reports stomach pain to their doctor. […] The analgesic composition is 15% peptide. The analgesic composition is administered with a reusable inhaler calibrated to provide a dose of 5 mg/kg of body weight.
(§1) A patient reports back pain to their doctor. Following examination of the patient, the doctor prescribes an analgesic composition containing a FDKP/Trp-(D)Pro-Ser-Phe-NH2 (SEQ ID NO: 3, Compound 3), composition prepared as described in the previous Examples. The analgesic composition is 15% peptide. The analgesic composition is administered with a reusable inhaler calibrated to provide a dose of 4 mg/kg of body weight.
as §1, with “dental” for “back”, “an Na2FDKP/Ac-His-(D)Phe-Arg-(D)Trp-Gly-NH2” for “a FDKP/Trp-(D)Pro-Ser-Phe-NH2”, “6,” for “3,”, “6)” for “3),”, “10%” for “15%”, “7” for “4”
A patient reports pain due to multiple sclerosis to their doctor. […] The analgesic composition is 20% peptide. The analgesic composition is administered with a reusable inhaler calibrated to provide a dose of 3 mg/kg of body weight.
patient two reports muscle pain to their doctor. Following examination of the patient, the doctor prescribes an analgesic composition containing a FDKP/Ac-His-(D)Phe-Arg-(D)Trp-Gly-NH2 (SEQ ID NO: 6, Compound 6) composition prepared as described in the previous Examples. The analgesic composition is 15% peptide. The analgesic composition is administered with a reusable inhaler calibrated to provide a dose of 5 mg/kg of body weight.
A patient reports pain from a broken arm to their doctor. Following examination of the patient, the doctor prescribes an analgesic composition containing a Na2FDKP/Trp-(D)Ser-Ser-Phe-NH2 (SEQ ID NO: 4, Compound 4) composition prepared as described in the previous Examples. The analgesic composition is 25% peptide. The analgesic composition is administered with a reusable inhaler calibrated to provide a dose of 2 mg/kg of body weight.
A patient reports their low pain threshold to their dentist. Following examination of the patient and prior to the dental procedure, the dentist administers an analgesic composition containing a FDKP/Ac-Nle-Gln-His-(D)Phe-Arg-(D)Trp-Gly-NH2 (SEQ ID NO:7, Compound 7) composition prepared as described in the previous Examples. The analgesic composition is 10% peptide. The analgesic composition is administered with a single-use inhaler designed to provide a dose of 5 mg/kg of body weight.

[4] = tested on: mice; assay: 55° C. warm-water tail withdrawal (tail-flick) assay; format: in vivo, mouse; details: FIG. 1; for plateau of antinociceptive effect: insufflated
Experimental: Antinociceptive effect was tested in a mouse tail-withdrawal (“tail-flick,” Aldrich et al. 2009) assay in which the tail of a restrained mouse is exposed to water at 55° C. […] Durations shorter than the maximum are reported as a percentage of the time limit. This tail-flick test (also known as the 55° C. warm-water tail withdrawal assay) is an industry acceptable, nonclinical model for assessing the efficacy of analgesics in treating acute pain. To test placebo effect, FDKP (TECHNOSPHERE®) powder (0.5 mg) without any peptide was used in the study. Each animal is tested for baseline tail-withdrawal latency prior to drug administration. Latency to withdraw the tail was subsequently measured in 10 minutes post-drug administration intervals as indicated. A maximum response time of 15 seconds was utilized to prevent tissue damage. Data reported as percent antinociception, as calculated by the following equation: % antinociception is equal to 100 times (test latency minus baseline latency) divided by (15 minus baseline latency).
The tetrapetide, (D)Phe-(D)Phe-(D)Nle-(D)Arg-NH2 (SEQ ID NO: 2, Compound 2) was administered to mice by intraperitoneal (i.p.) injection (3 mg/kg) in a saline solution, and by pulmonary insufflation of a dry powder formulation containing FDKP at various doses, 0.25 mg, 0.125 mg, 0.013 mg, 1.25 μg and 0.13 μg. The tail-flick test was performed for a period of time after administration. […]

Question: Which “ambulation (spontaneous locomotion)” value [1] does the source give for `CN1CC[C@]23c4c5ccc(O)c4O[C@H]2[C@@H](O)C=C[C@H]3[C@H]1C5` [morphine, reference compound] here?
Answer: locomotor hyperactivity

Question: And the respiration rate [1]?
Answer: depress the rate of respiration

Question: What about the “place preference for the drug-paired compartment” value (“place preference” below) [2] of the same compound?
Answer: strong preference for the associated compartment

Question: “Ac-Nle-Gln-His-(D)Phe-Arg-(D)Trp-Gly-NH2 [Compound 7]” was tested. Which “patient-reported pain during dental procedure” value ([3]; FDKP composition, 10% peptide, single-use inhaler 5 mg/kg, given before procedure, person) did it give?
Answer: no pain during the dental procedure

Question: For `NC(=O)[C@H](Cc1ccccc1)NC(=O)[C@H](CO)NC(=O)[C@@H](CO)NC(=O)[C@@H](N)Cc1c[nH]c2ccccc12` [Compound 4, Trp-(D)Ser-Ser-Phe-NH2] (HELM PEPTIDE1{W.[dS].S.F.[am]}$$$$V2.0), which “patient-reported pain from a broken arm” value ([3]; Na2FDKP composition, 25% peptide, inhaled 2 mg/kg, person) is on record?
Answer: elimination of their pain

Question: `NC(=O)[C@H](Cc1ccccc1)NC(=O)[C@H](CO)NC(=O)[C@H]1CCCN1C(=O)[C@@H](N)Cc1c[nH]c2ccccc12` [Compound 3, Trp-(D)Pro-Ser-Phe-NH2] (HELM PEPTIDE1{W.[dP].S.F.[am]}$$$$V2.0) was tested. Which patient-reported back pain ([3]; FDKP composition, 15% peptide, inhaled 4 mg/kg, person) did it give?
Answer: elimination of their back pain

Question: How did the patient-reported muscle pain ([3]; FDKP composition, 15% peptide, inhaled 5 mg/kg, person two) turn out when “Ac-His-(D)Phe-Arg-(D)Trp-Gly-NH2 (HXRXG; HELM PEPTIDE1{[ac].H.[dF].R.[dW].G.[am]}$$$$V2.0; SMILES CC(=O)N[C@@H](Cc1c[nH]cn1)C(=O)N[C@H](Cc1ccccc1)C(=O)N[C@@H](CCCNC(=N)N)C(=O)N[C@H](Cc1c[nH]c2ccccc12)C(=O)NCC(N)=O) [Compound 6]” was run?
Answer: elimination of their muscle pain

Question: What about the patient-reported dental pain ([3]; Na2FDKP composition, 10% peptide, inhaled 7 mg/kg, person) of the same compound?
Answer: elimination of their dental pain

Question: `CC[C@@H](C)[C@@H](NC(=O)[C@@H](Cc1ccccc1)NC(=O)[C@H](N)Cc1ccccc1)C(=O)N[C@H](CCCNC(=N)N)C(N)=O` [Compound 1, (D)Phe-(D)Phe-(D)Ile-(D)Arg-NH2] was tested. Which “ambulation (spontaneous locomotion)” value [1] did it give?
Answer: comparable to animals receiving placebo

Question: What about the respiration rate [1] of the same compound?
Answer: comparable to animals receiving placebo

Question: And the “place preference” value [2]?
Answer: no preference for the paired compartment

Question: Which “ambulation (spontaneous locomotion)” value [1] does the source give for `CCCC[C@@H](NC(=O)[C@@H](Cc1ccccc1)NC(=O)[C@H](N)Cc1ccccc1)C(=O)N[C@H](CCCNC(=N)N)C(N)=O` [Compound 2, (D)Phe-(D)Phe-(D)Nle-(D)Arg-NH2] (HELM PEPTIDE1{[dF].[dF].[CCCC[C@@H](N[*:1])C(=O)[*:2]].[dR].[am]}$$$$V2.0; N-terminus assumed) here?
Answer: comparable to animals receiving placebo

Question: And the respiration rate [1]?
Answer: comparable to animals receiving placebo

Question: What about the “place preference” value [2] of the same compound?
Answer: no preference for the paired compartment

Question: And the “antinociception effect versus time” value ([4]; all doses: i.p. 3 mg/kg in saline and insufflated FDKP dry powder 0.25 mg to 0.13 μg)?
Answer: rapidly provided near-complete antinociception

Question: What about the “time course of antinociceptive effect” value ([4]; i.p. injection 3 mg/kg in saline) of the same compound?
Answer: decayed almost linearly with time

Question: And the “dose response of antinociception” value ([4]; insufflated FDKP dry powder 0.25 mg to 0.13 μg)?
Answer: clear dose response was evident

Question: What about the “plateau of antinociceptive effect” value ([4]; 0.125 mg dose) of the same compound?
Answer: approximately 30 minutes

Question: What about the “plateau of antinociceptive effect” value ([4]; 0.25 mg dose) of the same compound?
Answer: 50 to 55 min

Question: What about the patient-reported headache pain ([3]; FDKP composition, 15% peptide, inhaled 5 mg/kg, person one) of the same compound?
Answer: elimination of their headache pain

Question: What about the “patient-reported pain due to multiple sclerosis” value ([3]; Na2FDKP composition, 20% peptide, inhaled 3 mg/kg, person) of the same compound?
Answer: elimination of their multiple sclerosis pain
